Data as given in patent publication EP0765662A1, “HIV GROWTH INHIBITORY COMPOSITION” (Kochi, Mutsuyuki, priority 1994, dated 1995).

Test system: HIVBRU
Assay: HIV-p24 antigen released from HIV-infected A3.01 cells stimulated with TNF-α
Type: cell-based
Details: AZT 2 µg/ml in place of SBA, HIV-infected A3.01 cells
Excerpt: In view of all these test results, it appears that the inhibitory activity of SBA against the replication of HIV-1 is not attributable to that SBA directly acts on HIV so as to make lose the infectivity (infectious power) of HIV. (c) Test of examining the inhibitory activity of SBA against such replication of the viral particles of HIV which is induced when a tumor necrosis factor (TNF-α) is introduced into the HIV-infected A3.01 cells AIDS virus, HIVBRU (its reverse transcriptase activity, 0.03 cpm/cell) and 6 x 10^6 cells of the A3.01 cell (HAT-susceptible CEM cell strain) were mixed and reacted together in a culture medium at 37°C for 1 hour, and thereafter the mixed cells were washed with PBS to remove the excess of the particles of HIV virus therefrom. The A3.01 cells (5 x 10^5 cells) which had been so infected with HIV were then cultivated in various culture media containing TNF-α and SBA at different concentrations of them. The amount of the HIV-p24 antigen (an HIV-structural protein of HIV) which was released in the culture supernatant from the cultivated cells under test was periodically measured during the period of between 0 day to 5th day of the cultivation. The culture medium used for the above-mentioned cultivation of the A3.01 cells was an RPM1-1640 medium comprising 10% of heat-treated embryonic bovine serum, and minor amounts of penicillin, streptomycin, glutamine and mercaptoethanol. The amount of the HIV-p24 antigen produced was measured with lapse of time, and the relationship of the amount of the HIV-p24 antigen to the concentration of SBA is summarily tabulated in Table 4 below.
In the tests above, the replication of the viral particles of HIV was examined in terms of the amount of the p24 antigen protein produced and appearing in the culture supernatant from the cultivated cells. Thus, the amount of the p24 antigen produced was measured periodically over 6 days after the A3.01 cells were infested with HIV. It was then observed that in the absence of SBA, the replication of the viral particles of HIV was induced in the A3.01 cells by stimulation with 10 units/ml of TNF-α added. […] Thus, the effective amount of SBA has the activity to inhibit the replication of the viral particles of HIV within the cells to an extent as same as AZT, and from this it is expected that SBA is useful similarly to AZT for the therapeutic treatments of AIDS. (d) Tests for evaluating an inhibitory activity of SBA to the formation of giant cells from HIV-infected Molt-4 cells In a similar manner to that in the above Test (c), Molt-4 cells (a CD4-positive human T-cell strain) were infected with AIDS virus, HIVBRU. Thereafter, The HIV-infected Molt-4 cells were mixed with such Molt-4 cells which had no HIV-infection. And the mixture of these cells were cultivated at a high density of the mixed cells in the above-mentioned improved RPM1-1640 medium containing SBA at its different concentrations. Whereupon, there was examined the presence of cell-fused cell(s) (namely, the giant cells) which were formed by fusion of the HIV-infected cells with each other or by fusion of the HIV-infected cells with the HIV-non-infected cells. The formation and appearance of the giant cells was confirmed by microscopic observation. The size of such giant cells is clearly different from the size of the other usual cells. […] Namely, it is shown that SBA has an anti-HIV activity. […] In the initial stage of the transcription of HIV-1 gene, said NFkB, i.e. the transcription regulating factor of the host cells, plays an important role. […] NFkB is known to be a complex protein which is composed by the association of a molecule of protein having a molecular weight of about 50,000 (p50) with a molecule of protein having a molecular weight of about 65,000 (p65). […]

Measured: Amount of the HIV p24 antigen

Cc1cn([C@H]2C[C@H](N=[N+]=[N-])[C@@H](CO)O2)c(=O)[nH]c1=O [AZT, azidothymidine, reference compound]
0 pg/mL: 0th day | 1st day | 2nd day | 3rd day | 4th day | 5th day
